According to patent publication US20240279202A1 (NURIX THERAPEUTICS, INC., priority 2021, published 2024):

Target: T1, ITK (Mus musculus, UniProt Q03526)
T1 construct: mice were sacrificed and splenocytes were isolated and used to prepare protein lysates; from tissue; host or cells: mouse splenocytes (spleen) after oral dosing
T1 sequence (Q03526 1-625): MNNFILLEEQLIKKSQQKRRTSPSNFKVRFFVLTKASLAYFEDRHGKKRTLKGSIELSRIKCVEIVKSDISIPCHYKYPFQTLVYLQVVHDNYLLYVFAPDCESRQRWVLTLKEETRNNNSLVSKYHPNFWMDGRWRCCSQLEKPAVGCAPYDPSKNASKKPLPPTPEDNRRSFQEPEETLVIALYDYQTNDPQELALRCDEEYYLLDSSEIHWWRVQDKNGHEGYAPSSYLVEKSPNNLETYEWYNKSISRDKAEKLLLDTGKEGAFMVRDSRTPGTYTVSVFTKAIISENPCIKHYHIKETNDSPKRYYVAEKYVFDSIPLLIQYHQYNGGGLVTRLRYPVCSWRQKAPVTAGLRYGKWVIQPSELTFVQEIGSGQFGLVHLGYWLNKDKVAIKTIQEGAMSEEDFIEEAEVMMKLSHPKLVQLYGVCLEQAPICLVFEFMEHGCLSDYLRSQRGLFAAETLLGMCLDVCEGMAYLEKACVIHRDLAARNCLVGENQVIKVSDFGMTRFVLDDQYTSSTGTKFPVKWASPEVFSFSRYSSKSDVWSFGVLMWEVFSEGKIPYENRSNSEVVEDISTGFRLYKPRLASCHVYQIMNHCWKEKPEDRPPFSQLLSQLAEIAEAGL
Assay: Mouse PD assay for ITK degradation (Western blot, splenocytes after oral administration)
Format: in vivo
Settings: percent ITK remaining in mouse splenocytes relative to vehicle, 90 mpk PO, 6 h
Outline: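 Mice dosed orally, some compounds at 90 mg/kg; splenocytes harvested after 6 hours (some 24 hours). ITK measured by Western blot of equal-protein lysates, normalized to actin. Values are % ITK remaining relative to vehicle-control mean.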

ITK (%) 90 mpk PO, 6 h	SMILES
113%	C[C@@]12Cc3[nH]nc(C(=O)Nc4cnn(CC5CN(C(=O)C6CCN(c7ccc(C8CCC(=O)NC8=O)cn7)CC6)C5)c4)c3C[C@@H]1C2(F)F (stereo partly drawn) [Compound 50, (4aS,5aR)-N-(1-((1-(1-(5-(2,6-dioxopiperidin-3-yl)pyridin-2-yl)piperidine-4-carbonyl)azetidin-3-yl)methyl)-1H-pyrazol-4-yl)-5,5-difluoro-5a-methyl-1,4,4a,5,5a,6-hexahydrocyclopropa[f]indazole-3-carboxamide]
58%	C[C@@H](C(=O)N(C)c1ccc2cc(-c3n[nH]c4c3C[C@@H]3C(F)(F)[C@]3(C)C4)[nH]c2c1)N1CCN(CC2CCN(c3cccc4c3n(C)c(=O)n4C3CCC(=O)NC3=O)CC2)CC1 (stereo partly drawn) [Compound 65, (2S)—N-(2-((4aS,5aR)-5,5-difluoro-5a-methyl-1,4,4a,5,5a,6-hexahydrocyclopropa[f]indazol-3-yl)-1H-indol-6-yl)-2-(4-((1-(1-(2,6-dioxopiperidin-3-yl)-3-methyl-2-oxo-2,3-dihydro-1H-benzo[d]imidazol-4-yl)piperidin-4-yl)methyl)piperazin-1-yl)-N-methylpropanamide]
42.7%	C[C@@H](C(=O)N(C)c1ccc2cc(-c3n[nH]c4c3C[C@@H]3C(F)(F)[C@]3(C)C4)[nH]c2c1)N1CCN(CC2CCN(c3ccc(C(=O)NC4CCC(=O)NC4=O)nc3)CC2)CC1 (stereo partly drawn) [Compound 66, 5-(4-((4-((S)-1-((2-((4aS,5aR)-5,5-difluoro-5a-methyl-1,4,4a,5,5a,6-hexahydrocyclopropa[f]indazol-3-yl)-1H-indol-6-yl)(methyl)amino)-1-oxopropan-2-yl)piperazin-1-yl)methyl)piperidin-1-yl)-N-(2,6-dioxopiperidin-3-yl)picolinamide]
140%	CN(C(=O)CCC1CCN(c2ccc(C(=O)NC3CCC(=O)NC3=O)nc2)C1)c1ccc2cc(-c3n[nH]c4c3C[C@@H]3C(F)(F)[C@]3(C)C4)[nH]c2c1 (stereo partly drawn) [Compound 69, 5-(3-(3-((2-((4aS,5aR)-5,5-difluoro-5a-methyl-1,4,4a,5,5a,6-hexahydrocyclopropa[f]indazol-3-yl)-1H-indol-6-yl)(methyl)amino)-3-oxopropyl)pyrrolidin-1-yl)-N-(2,6-dioxopiperidin-3-yl)picolinamide]
116%	CN(C(=O)CN1CCC2(CC1)CCN(c1ccc3c(c1)C(=O)N(C1CCC(=O)NC1=O)C3=O)C2)c1ccc2cc(-c3n[nH]c4c3C[C@@H]3C(F)(F)[C@]3(C)C4)[nH]c2c1 (stereo partly drawn) [Compound 72, N-(2-((4aS,5aR)-5,5-difluoro-5a-methyl-1,4,4a,5,5a,6-hexahydrocyclopropa[f]indazol-3-yl)-1H-indol-6-yl)-2-(2-(2-(2,6-dioxopiperidin-3-yl)-1,3-dioxoisoindolin-5-yl)-2,8-diazaspiro[4.5]decan-8-yl)-N-methylacetamide]
92%	CN(C(=O)CC1CCN(CC2CCN(c3ccc(C4CCC(=O)NC4=O)cn3)CC2)CC1)c1ccc2cc(-c3n[nH]c4c3C[C@@H]3C(F)(F)[C@]3(C)C4)[nH]c2c1 (stereo partly drawn) [Compound 73, N-(2-((4aS,5aR)-5,5-difluoro-5a-methyl-1,4,4a,5,5a,6-hexahydrocyclopropa[f]indazol-3-yl)-1H-indol-6-yl)-2-(1-((1-(5-(2,6-dioxopiperidin-3-yl)pyridin-2-yl)piperidin-4-yl)methyl)piperidin-4-yl)-N-methylacetamide]
137%	CN(C(=O)CC1CCN(CC2CCN(c3ccc(C(=O)NC4CCC(=O)NC4=O)nc3)CC2)CC1)c1ccc2cc(-c3n[nH]c4c3C[C@@H]3C(F)(F)[C@]3(C)C4)[nH]c2c1 (stereo partly drawn) [Compound 75, 5-(4-((4-(2-((2-((4aS,5aR)-5,5-difluoro-5a-methyl-1,4,4a,5,5a,6-hexahydrocyclopropa[f]indazol-3-yl)-1H-indol-6-yl)(methyl)amino)-2-oxoethyl)piperidin-1-yl)methyl)piperidin-1-yl)-N-(2,6-dioxopiperidin-3-yl)picolinamide]
